Data on ten compounds can be found in US4880938A, “Amino acid analogs” (priority 1986, dated 1989).

For orientation: IC50 means the concentration needed to halve the response being measured.

The test system of test [1] is CCK receptor. Particulars: background, structure-function studies; cited from earlier work.
Test [2] addresses T1, CCK receptor (pancreas) (Rattus norvegicus, UniProt P30551).
T1 construct: The whole pancreas of a male Sprague-Dawley rat (200-350 g); from tissue; host or cells: whole pancreas of male Sprague-Dawley rat, membrane homogenate
T1 sequence (P30551 1-444): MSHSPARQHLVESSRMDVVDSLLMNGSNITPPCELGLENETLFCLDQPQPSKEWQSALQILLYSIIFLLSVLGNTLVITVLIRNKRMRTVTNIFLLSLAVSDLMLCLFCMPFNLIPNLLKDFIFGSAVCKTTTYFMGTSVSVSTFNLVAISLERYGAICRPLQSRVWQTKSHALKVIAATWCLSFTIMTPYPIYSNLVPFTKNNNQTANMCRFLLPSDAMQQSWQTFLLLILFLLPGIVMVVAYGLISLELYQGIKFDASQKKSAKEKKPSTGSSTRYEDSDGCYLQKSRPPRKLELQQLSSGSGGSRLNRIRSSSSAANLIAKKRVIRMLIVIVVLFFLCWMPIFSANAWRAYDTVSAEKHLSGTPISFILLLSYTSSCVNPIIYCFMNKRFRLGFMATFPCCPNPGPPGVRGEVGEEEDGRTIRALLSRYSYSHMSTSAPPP
The test is described as follows: 125I-CCK-33 receptor binding (pancreas) method. The note with it: protease inhibitors added to binding assay buffer. Set-up: species or system rat (male Sprague-Dawley). The text has this: Screening of the novel compounds according to the present invention to determine biological activity and obtain an IC50 value for them, in order to identify significant CCK-antagonism, may be accomplished using an ^125 I-CCK receptor binding assay and in vitro isolated tissue preparations. […] These tests involve the following:
CCK receptor binding (pancreas) method
CCK-33 was radiolabeled with ^125 I-Bolton Hunter reagent (2000 Ci/mmole), as described by Sankara et al. (J. Biol. Chem., 254, 9349-9351, 1979).
The whole pancreas of a male Sprague-Dawley rat (200-350 g), which had been sacrificed by decapitation, was dissected free of fat tissue and homogenized in 20 volumes of ice-cold 50 mM Tris HCl (pH 7.7 at 25° C.) with a Brinkmann Polytron PT-10. The homogenates were centrifuged at 48,000 g for 10 minutes, then the resulting pellets were resuspended in Tris Buffer, centrifuged as above, and resuspended in 200 volumes of binding assay buffer (50 mM Tris HCl, pH 7.7 at 25° C., 5 mM dithiothreitol, 0.1 mM bacitracin, 1.2 mM phenylmethane sulfonyl fluoride and 0.5 mM o-phenanthroline).
The supernatant was aspirated and discarded, and the pellets were counted with a Beckman Gamma 5000.

For test [3], the target named is T2, Gastrin receptor (gastric glands) (Cavia porcellus, UniProt H0VZC5).
T2 construct: Gastric mucosa from male Hartley guinea pigs (300-500 g body weight); from tissue; host or cells: isolated gastric mucosal glands of male Hartley guinea pigs
T2 sequence (H0VZC5 1-426): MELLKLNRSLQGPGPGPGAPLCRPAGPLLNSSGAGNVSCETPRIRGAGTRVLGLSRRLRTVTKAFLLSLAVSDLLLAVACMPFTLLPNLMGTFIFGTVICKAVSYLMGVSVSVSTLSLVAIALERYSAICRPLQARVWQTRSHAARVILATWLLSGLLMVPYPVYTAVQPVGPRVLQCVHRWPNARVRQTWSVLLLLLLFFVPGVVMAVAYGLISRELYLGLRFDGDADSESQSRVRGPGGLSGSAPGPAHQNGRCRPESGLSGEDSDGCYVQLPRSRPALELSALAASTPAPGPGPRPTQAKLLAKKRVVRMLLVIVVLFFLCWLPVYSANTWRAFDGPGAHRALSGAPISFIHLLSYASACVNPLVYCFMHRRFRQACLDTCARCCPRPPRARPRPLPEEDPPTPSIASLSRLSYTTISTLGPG
The experiment in a line: 125I-gastrin receptor binding in guinea pig gastric glands. Also on record: species or system guinea pig (male Hartley). Particulars: 25° C., 30 minutes. An excerpt:
(§1) Screening of the novel compounds according to the present invention to determine biological activity and obtain an IC50 value for them, in order to identify significant CCK-antagonism, may be accomplished using an ^125 I-CCK receptor binding assay and in vitro isolated tissue preparations. To identify significant gastrin antagonism, ^125 I-gastrin and ^3 H-pentagastrin binding assays are used. These tests involve the following:
Gastrin Receptor Binding in Guinea Pig Gastric Glands
Guinea pig gastric mucosal glands were prepared by the procedure of Berglingh and Obrink, Acta Physiol. Scand. 96: 150 (1976), with a slight modification according to Praissman et al. C. J. Receptor Res. 3: (1983). Gastric mucosa from male Hartley guinea pigs (300-500 g body weight) were washed thoroughly and minced with fine scissors in standard buffer consisting of the following: 130 mM NaCl, 12 mM NaHCO3, 3 mM NaH2 PO4, 3 mM Na2 HPO4, 3 mM K2 HPO4, 2 mM MgSO4, 1 mM CaCl2, 5 mM glucose and 4 mM L-glutamine, 25 mM HEPES at pH 7.4. […]
The washed guinea pig gastric glands were resuspended in 25 ml of standard buffer containing 0.25 mg/ml of bacitracin. […] The radioactivity of the filters was measured using a Beckman gamma 5500 for ^125 I-gastrin or liquid scintillation counting for ^3 H-pentagastrin.

Test [4] concerns the target T3, CCK receptor (brain, cerebral cortex) (Cavia porcellus, UniProt H0VZC5).
T3 construct: The cerebral cortex was dissected and used as a receptor source; from tissue; host or cells: cerebral cortex of male Hartley guinea pigs, membrane homogenate
T3 sequence (H0VZC5 1-426): T2 sequence (H0VZC5 1-426)
The test is described as follows: 125I-CCK-33 receptor binding (brain) method. Also on record: species or system guinea pig (male Hartley). The note with it: 125I-CCK-33, guinea pig cerebral cortex, 25° C., 2 hours.
Description: as §1
CCK receptor binding (brain) method
CCK-33 was radiolabeled and the binding was performed according to the description for the pancreas method, with modifications according to Saito et al., J. Neurochem., 37, 483-490, 1981.
Male Hartley guinea pigs (300-500 g) were sacrificed by decapitation, and the brains were removed and placed in ice-cold 50 mM Tris HCl plus 7.58 g/l Trizma-7.4 [pH 7.4 at 25° C.]. The cerebral cortex was dissected and used as a receptor source and each gram of fresh guinea pig brain tissue was homogenized in 10 ml of Tris/Trizma buffer with a Brinkmann polytron PT-10. The homogenates were centrifuged at 42,000 g for 15 minutes, then the resulting pellets were resuspended in 200 volumes of binding assay buffer (10 mM N-2-hydroxy-ethyl-piperazine-N'-2-ethane-sulfonic acid (HEPES), pH 7.7 at 25° C., 5 mM MgCl2, 1 mM ethyl glycol-bis-(β-amino-ethyl-ether-N,N'-tetraacetic acid (EGTA), 0.4% BSA (bovine serum albumin) and 0.25 mg/ml bacitracin, pH 6.5).
The remainder of the binding assay method was as described for the pancreas method, except that the reaction mixtures were incubated at 25° C. for 2 hours before centrifugation.

Test [5] concerns gastrin. Particulars: background, in vitro; cited from earlier work.

Where a SMILES comes first, the peptide text is derived from it. [ ]: non-standard residue; d: D form. The star is where a group is joined. sY = N[C@@H](Cc1ccc(OS(=O)(=O)O)cc1)C(=O)O; Cbz = O=C(OCc1ccccc1)*; Boc = CC(C)(C)OC(=O)*

As to `CSCC[C@H](NC(=O)[C@H](Cc1ccc(OS(=O)(=O)O)cc1)NC(=O)OCc1ccccc1)C(=O)NCC(=O)N[C@@H](Cc1c[nH]c2ccccc12)C(=O)N[C@@H](CCSC)C(=O)N[C@@H](CC(=O)O)C(N)=O` [Cbz-Tyr(SO3 H)-Met-Gly-Trp-Met-Asp-NH2] (Cbz-[sY]MGWMD-NH2), the “CCK antagonism (in words)” value in test [1] is recorded as “partial agonist”.
Take `O=S(=O)(F)Cc1ccccc1` [phenylmethane sulfonyl fluoride]: the “effect on the 125I-CCK receptor binding assay (in words)” value in test [2] is “no effect”.
On to `CCCC(=O)Nc1nc2c(ncn2[C@@H]2O[C@@H]3COP(=O)(O)O[C@H]3[C@H]2OC(=O)CCC)c(=O)[nH]1` [dibutyryl cyclic GMP], for which, in test [1], the “CCK antagonism (in words)” value is given as “most potent”.
Consider `O=C(O)CC[C@@H](NC(=O)c1cc2ccccc2[nH]1)C(=O)N(C1CCCCC1)C1CCCCC1` [Compound 10, (R)-5-(dicyclohexylamino)-4[(1H-indol-2-ylcarbonyl)amino]-5-oxo-pentanoic acid], for which the 50% inhibitory concentration (IC50) in test [3] is 4.1 µM; in test [4], 3.4 µM.
As for `c1cnc2c(c1)ccc1cccnc12` [o-phenanthroline], in test [2], the “effect on the 125I-CCK receptor binding assay (in words)” value was “no effect”.
Take `CSCC[C@H](N)C(=O)N[C@@H](CC(=O)O)C(=O)N[C@@H](Cc1ccccc1)C(N)=O` [Met-Asp-Phe-NH2] (H-Met-Asp-Phe-NH2): the “CCK antagonism (in words)” value in test [1] is given as “can function as CCK antagonists”.
Consider `CCCCCN(CCCCC)C(=O)C(CCC(=O)O)NC(=O)c1ccc(Cl)c(Cl)c1` (racemic) [Compound 2, reference compound], for which the half-maximal inhibitory concentration (IC50) in test [4] amounted to 2.2 µM.
On to `CCCN(CCC)C(=O)C(CCC(=O)O)NC(=O)c1ccccc1` (racemic) [Compound 1, reference compound], for which the “gastrin antagonism (in words)” value in test [5] is recorded as “very weak in vitro antagonists”.
In the case of `CSCC[C@H](NC(=O)OC(C)(C)C)C(=O)N[C@@H](CC(=O)O)C(=O)N[C@@H](Cc1ccccc1)C(N)=O` [Boc-Met-Asp-Phe-NH2] (Boc-Met-Asp-Phe-NH2), the “CCK antagonism (in words)” value in test [1] is listed as “can function as CCK antagonists”.
Take `CCCCCN(CCCCC)C(=O)C(CCC(=O)OCc1ccccc1)NC(=O)Nc1ccc(Cl)cc1` (racemic) [Compound 8, (RS)-4-[(4-chlorophenylaminocarbonyl)amino]-5-(dipentylamino)-5-oxo-1-(phenylmethyloxy)pentanoic acid]: the IC50 in test [3] is 22 µM; in test [4], 5.3 µM.
